# Results published in US5629296A, “9A-N-(N'-carbamoyl)and 9A-N-(N'-thiocarbamoyl) derivatives of 9-deoxo-9A-aza-9A-homoerythromycin A” (Pliva farmaceutiska, kemijska, prehrambena i kozmeticka …, priority 1993, dated 1997).
# How the values were obtained:
# Test in all cases: MIC, dilution method on microplates (NCCLS M7-A2)
# Format in all cases: cell-based
# [1] = system: Pseudomonas aeruginosa NCTC 10490; conditions: NCTC10490
# Description: (§1) Minimum inhibitory concentrations (MIC, mcg/ml) are determined by dilution method on microplates according to the recommendation of National Committee for Clinical Laboratory Standards (NCCLS, M7-A2). It is evident from Table 1 that standard strains and clinical isolates tested are susceptible to newly synthetised compounds. Thus they may be used for disinfection of rooms, chirurgical instruments and humans and as therapeutic agents in the treatment of infective diseases in animals, especially mammals and humans, caused by a broad spectrum of Gram-positive bacteria, mycoplasmas and generally patogenic microorganisms that are susceptible to the compounds of the formula (I). To this purpose the above compounds and pharmaceutically acceptable acid addition salts thereof may be administered orally in usual doses from 0.2 mg/kg body weight daily to about 250 mg/kg/day, most preferably from 5-50 mg/kg/day, or parenterally in the form of subcutaneous and intramuscular injections.
# [2] = system: Micrococcus flavus ATCC 10240; conditions: ATCC10240
# Description: as §1
# B. pumilus NCTC 8241 = conditions: Bacillus pumilus, NCTC8241
# Description: as §1
# B. cererus ATCC 11778 = system: B. cererus ATCC 11778
# Description: as §1
# [3] = system: Streptococcus faecalis ATCC 8043; conditions: Enterococcus faecalis, ATCC8043
# Description: as §1
# [4] = system: Staphylococcus aureus ATCC 6538P; conditions: ATCC6538P
# Description: as §1
# [5] = system: Esherichia coli ATCC 10536
# Description: as §1
# [6] = system: Staphylococcus epidermidis ATCC 12228; conditions: ATCC12228
# Description: as §1
# Salmonella Panama 6117 = conditions: Salmonella enterica, PANAMA6117
# Description: as §1
# [7] = system: Bacillus subtilis NCTC 8236; conditions: NCTC8236
# Description: as §1
# [8] = system: BHS-A Streptococcus pyogenes J-21
# Description: as §1
# [9] = system: BHS-B Streptococcus Agalactiae J-22
# Description: as §1
MIC [1],MIC [2],MIC (B. pumilus NCTC 8241),MIC (B. cererus ATCC 11778),MIC [3],MIC [4],MIC [5],MIC [6],MIC (Salmonella Panama 6117),MIC [7],MIC [8],MIC [9],SMILES
50 µg/mL,3.12 µg/mL,3.12 µg/mL,6.25 µg/mL,3.12 µg/mL,3.12 µg/mL,25 µg/mL,6.25 µg/mL,> 100 µg/mL,3.12 µg/mL,–,–,"CC[C@H]1OC(=O)[C@H](C)[C@@H](O[C@H]2C[C@@](C)(OC)[C@@H](O)[C@H](C)O2)[C@H](C)[C@@H](O[C@@H]2O[C@H](C)C[C@H](N(C)C)[C@H]2O)[C@](C)(O)C[C@@H](C)CN(C(=O)NCc2ccccc2)[C@H](C)[C@@H](O)[C@]1(C)O [Example 6, 9-deoxo-9a-N-(N'-benzyl-carbamoyl)-9a-aza-9a-homoerythromycin A]"
25 µg/mL,3.12 µg/mL,6.25 µg/mL,6.25 µg/mL,3.12 µg/mL,1.56 µg/mL,12.5 µg/mL,6.25 µg/mL,6.25 µg/mL,1.56 µg/mL,–,–,"CC[C@H]1OC(=O)[C@H](C)[C@@H](O[C@H]2C[C@@](C)(OC)[C@@H](O)[C@H](C)O2)[C@H](C)[C@@H](O[C@@H]2O[C@H](C)C[C@H](N(C)C)[C@H]2O)[C@](C)(O)C[C@@H](C)CN(C(=O)NC(C)C)[C@H](C)[C@@H](O)[C@]1(C)O [Example 1, 9-deoxo-9a-N-(N'-isopropyl-carbamoyl)-9a-aza-9a-homoerythromycin A]"
50 µg/mL,6.25 µg/mL,6.25 µg/mL,12.5 µg/mL,3.12 µg/mL,6.25 µg/mL,12.5 µg/mL,3.12 µg/mL,25 µg/mL,6.25 µg/mL,3.12 µg/mL,1.56 µg/mL,"CC[C@H]1OC(=O)[C@H](C)[C@@H](O[C@H]2C[C@@](C)(OC)[C@@H](O)[C@H](C)O2)[C@H](C)[C@@H](O[C@@H]2O[C@H](C)C[C@H](N(C)C)[C@H]2O)[C@](C)(O)C[C@@H](C)CN(C(=O)Nc2ccccc2)[C@H](C)[C@@H](O)[C@]1(C)O [Example 5, 9-deoxo-9a-N-(N'-phenyl-carbamoyl)-9a-aza-9a-homoerythromycin A]"
25 µg/mL,1.56 µg/mL,12.5 µg/mL,3.12 µg/mL,3.12 µg/mL,3.12 µg/mL,3.12 µg/mL,3.12 µg/mL,3.12 µg/mL,12.5 µg/mL,3.12 µg/mL,1.56 µg/mL,"CC[C@H]1OC(=O)[C@H](C)[C@@H](O[C@H]2C[C@@](C)(OC)[C@@H](O)[C@H](C)O2)[C@H](C)[C@@H](O[C@@H]2O[C@H](C)C[C@H](N(C)C)[C@H]2O)[C@](C)(O)C[C@@H](C)CN[C@H](C)[C@@H](O)[C@]1(C)O [Example 9a-NH, 9-deoxo-9a-aza-9a-homoerythromycin A]"
50 µg/mL,1.56 µg/mL,1.56 µg/mL,6.25 µg/mL,1.56 µg/mL,3.12 µg/mL,12.5 µg/mL,6.25 µg/mL,> 100 µg/mL,1.56 µg/mL,–,–,"CC[C@H]1OC(=O)[C@H](C)[C@@H](O[C@H]2C[C@@](C)(OC)[C@@H](O)[C@H](C)O2)[C@H](C)[C@@H](O[C@@H]2O[C@H](C)C[C@H](N(C)C)[C@H]2O)[C@](C)(O)C[C@@H](C)CN(C(=S)NCc2ccccc2)[C@H](C)[C@@H](O)[C@]1(C)O [Example 7, 9-deoxo-9a-N-(N'-benzyl-thiocarbamoyl)-9a-aza-9a-homoerythromycin A]"
50 µg/mL,12.5 µg/mL,12.5 µg/mL,12.5 µg/mL,6.25 µg/mL,12.5 µg/mL,12.5 µg/mL,25 µg/mL,25 µg/mL,25 µg/mL,12.5 µg/mL,12.5 µg/mL,"CC[C@H]1OC(=O)[C@H](C)[C@@H](O[C@H]2C[C@@](C)(OC)[C@@H](O)[C@H](C)O2)[C@H](C)[C@@H](O[C@@H]2O[C@H](C)C[C@H](N(C)C)[C@H]2O)[C@](C)(O)C[C@@H](C)CN(C(=O)Nc2ccncc2)[C@H](C)[C@@H](O)[C@]1(C)O [Example 4, 9-deoxo-9a-N-[N'-(4-pyridyl)-carbamoyl]-9a-aza-9a-homoerythromycin A]"
